From patent US9670203B2 (BeiGene, LTD., priority 2013, dated 2017)
Read-outs that look alike come from different tables or passages of the source.

Legend:
B-Raf (V600E) = B-Raf (V600E) (Homo sapiens (Human), UniProt P15056, V600E); test: Raf IC50 assay, time-resolved fluorescence energy transfer, B-Raf (V600E); assay type: biochemical; conditions: 0.1 mM ATP; read-out: IC50 (nM) B_Raf^V600E
Method: The enzyme was incubated with the compounds at room temperature for 60 minutes and the reactions were initiated by the addition of ATP and GST-MEK1. After reaction at room temperature for 60 minutes, an equal volume of stop/detection solution was added according to the manufacture's instruction (CisBio Bioassays). […] The IC50 for each compound was derived from fitting the dose-response % inhibition data to the four-parameter logistic model by Graphpad Prism software.

C-Raf (Y340D/Y341D) = C-Raf (Y340D/Y341D) (Homo sapiens (Human), UniProt P04049, Y340D/Y341D); test: Raf IC50 assay, time-resolved fluorescence energy transfer, C-Raf (Y340D/Y341D); assay type: biochemical; conditions: 0.1 mM ATP
Method: The assay was carried out in reactions (10 μL) containing 0.0625 nM B-Raf or 0.5 nM C-Raf, 25 mM Tris pH7.4, 10 mM MgCl2, 0.5 mM EGTA, 0.5 mM Na3VO4, 5 mM beta-glycerophosphate, 0.01% Triton X-100, 2.5 mM DTT, 0.1% BSA, 0.1 mM ATP, 13.7 nM GST-tagged MEK1 (Full-length protein with K97R mutation, recombinant protein purified from bacterial expression system) and 0-5 μM compounds disclosed herein (final concentration of 1% DMSO). The enzyme was incubated with the compounds at room temperature for 60 minutes and the reactions were initiated by the addition of ATP and GST-MEK1. After reaction at room temperature for 60 minutes, an equal volume of stop/detection solution was added according to the manufacture's instruction (CisBio Bioassays). The stop/detection solution contained Eu^3+ cryptate-conjugated anti-phospho MEK1/2 (Ser217/221) rabbit polyclonal antibody and d2-conjugated anti-GST mouse monoclonal antibody in buffer containing 25 mM Tris pH7.4, 400 mM KF, 50 mM EDTA, 0.01% BSA and 0.01% Triton X-100. Plates were sealed and incubated at room temperature for 2 hours, and the TR-FRET signals (ratio of fluorescence emission at 665 nm over emission at 620 nm with excitation at 337 nm wavelength) were recorded on a PHERAstar FS plate reader (BMG Labtech). Phosphorylation of MEK1 led to the binding of anti-phospho-MEK1/2 antibody to GST-MEK1 protein that place fluorescent donor (Eu^3+ crypate) in close proximity to the accepter d2 on the anti-GST antibody, thus resulting in a high degree of fluorescence resonance energy transfer from the donor fluorophore (at 620 nm) to the acceptor fluorophore (at 665 nm). […] The IC50 for each compound was derived from fitting the dose-response % inhibition data to the four-parameter logistic model by Graphpad Prism software.

wild type B-Raf = wild type B-Raf (Homo sapiens (Human), UniProt P15056); test: WT B-Raf IC50 assay, time-resolved fluorescence energy transfer; assay type: biochemical
Method: The IC50 for each compound was calculated by non linear regression by Graphpad Prism software.

A375 = test: Anti-proliferative activity EC50 assay (CellTiter-Glo) in A375; assay type: cell-based; conditions: Homo sapiens, A-375, 72 h; 3-day exposure; read-out: Cell Proliferation EC50 (nM) A375
Method: The growth-inhibitory activity of compounds in A375 and p61-A375, was determined using CellTiter-Glo luminescent cell viability assay (Promega). The 2,000 cells were seeded per well of a 96-well plate to ensure logarithmic growth could occur over the 3 days treatment period. Cells were left to attach for 16 hours, cells were treated in duplicate with a 10-point dilution series. Following a 3-day exposure to compounds disclosed herein, a volume of CellTiter-Glo reagent equal to the volume of cell culture medium present in each well was added. Mixture was mixed on an orbital shaker for 2 minutes to allow cell lysis, followed by 10 minutes incubation at room temperature to allow stabilization of luminescent signal, which corresponded to quantitation of ATP and thus the quantitation of metabolically active cells. Luminescent signal was measured using Pherastar FS reader (BMG Labtech).
EC50 values for growth inhibition were calculated by fitting dose-dependent data to the four-parameter logistic model using GraphPad Prism software.

[1] = Km ATP (2.9 μM ATP), read-out: IC50 (nM) B-Raf^WT Km ATP
[2] = 2.5 mM ATP, read-out: IC50 (nM) B-Raf^WT 2.5 mM ATP

B-Raf (V600E), sequence (P15056 whole entry V600E): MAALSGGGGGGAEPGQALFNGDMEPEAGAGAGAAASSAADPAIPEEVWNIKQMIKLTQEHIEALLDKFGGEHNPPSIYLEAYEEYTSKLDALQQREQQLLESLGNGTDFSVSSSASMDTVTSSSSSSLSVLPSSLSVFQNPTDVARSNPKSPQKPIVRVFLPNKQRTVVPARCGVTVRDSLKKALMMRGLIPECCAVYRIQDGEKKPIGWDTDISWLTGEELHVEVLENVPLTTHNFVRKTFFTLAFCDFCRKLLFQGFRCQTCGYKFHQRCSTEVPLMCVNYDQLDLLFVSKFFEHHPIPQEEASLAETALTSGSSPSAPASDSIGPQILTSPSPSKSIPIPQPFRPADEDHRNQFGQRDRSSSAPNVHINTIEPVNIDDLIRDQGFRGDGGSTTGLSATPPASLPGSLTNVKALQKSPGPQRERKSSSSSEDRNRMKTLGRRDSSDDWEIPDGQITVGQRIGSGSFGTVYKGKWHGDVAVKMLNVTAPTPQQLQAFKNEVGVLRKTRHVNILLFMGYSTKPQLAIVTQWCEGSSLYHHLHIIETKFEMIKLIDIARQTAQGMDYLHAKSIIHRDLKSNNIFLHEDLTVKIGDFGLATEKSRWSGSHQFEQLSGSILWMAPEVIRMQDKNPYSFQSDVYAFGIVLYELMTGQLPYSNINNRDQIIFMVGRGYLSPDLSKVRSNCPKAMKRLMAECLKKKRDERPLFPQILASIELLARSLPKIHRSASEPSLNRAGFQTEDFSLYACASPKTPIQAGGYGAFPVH
wild type B-Raf, sequence (P15056 whole entry): as the sequence (P15056 whole entry V600E) above, with E600V counted along it
C-Raf (Y340D/Y341D), sequence (P04049 whole entry Y340D/Y341D): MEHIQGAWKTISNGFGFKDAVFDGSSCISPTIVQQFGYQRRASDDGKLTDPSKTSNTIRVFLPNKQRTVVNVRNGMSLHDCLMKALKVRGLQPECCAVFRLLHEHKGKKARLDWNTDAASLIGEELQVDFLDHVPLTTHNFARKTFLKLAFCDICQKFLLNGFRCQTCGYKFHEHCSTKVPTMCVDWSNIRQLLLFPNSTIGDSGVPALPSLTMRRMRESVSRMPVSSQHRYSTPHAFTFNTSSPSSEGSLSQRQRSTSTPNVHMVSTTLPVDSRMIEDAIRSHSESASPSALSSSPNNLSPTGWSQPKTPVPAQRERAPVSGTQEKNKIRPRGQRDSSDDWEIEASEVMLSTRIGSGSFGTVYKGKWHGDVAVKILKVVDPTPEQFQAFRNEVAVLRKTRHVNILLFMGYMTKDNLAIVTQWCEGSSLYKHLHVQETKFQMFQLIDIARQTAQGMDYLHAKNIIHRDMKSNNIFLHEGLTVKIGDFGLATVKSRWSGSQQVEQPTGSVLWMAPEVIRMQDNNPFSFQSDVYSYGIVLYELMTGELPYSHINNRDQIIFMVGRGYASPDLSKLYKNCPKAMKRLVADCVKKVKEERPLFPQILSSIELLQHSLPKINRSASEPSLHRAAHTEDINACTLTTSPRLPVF

Row | Structure (SMILES) | IC50 (B-Raf (V600E)) [nM] | IC50 (C-Raf (Y340D/Y341D)) [nM] | IC50 (wild type B-Raf; [1]) [nM] | IC50 (wild type B-Raf; [2]) [nM] | EC50 (A375) [nM]
1 | COc1ccc(CNC(=O)N[C@@H]2[C@H]3Oc4ccc(Oc5ccnc6c5CCC(=O)N6)cc4[C@@H]23)cc1 [Compound 1.3] | 40 | 0.54 |  |  | 
2 | Cc1cc(Cl)ccc1NC(=O)N[C@@H]1[C@H]2Oc3ccc(Oc4ccnc5c4CCC(=O)N5)cc3[C@@H]12 [Compound 1.7] | 1.1 | 0.35 | 2.6 |  | 
3 | O=C1CCc2c(Oc3ccc4c(c3)[C@H]3[C@H](NC(=O)Nc5ccc(Cl)cc5C(F)(F)F)[C@H]3O4)ccnc2N1 [Compound 1.9] | 9.5 | 1.6 | 21 |  | 
4 | C#Cc1cccc(NC(=O)N[C@@H]2[C@H]3Oc4ccc(Oc5ccnc6c5CCC(=O)N6)cc4[C@@H]23)c1 [Compound 1.14] | 1.9 |  | 2.8 | 8.5 | 127
5 | O=C1CCc2c(Oc3ccc4c(c3)[C@H]3[C@H](NC(=O)Nc5ccc(C(F)(F)F)cc5F)[C@H]3O4)ccnc2N1 [Compound 1.20] | 13 | 2.7 | 23 |  | 
6 | O=C1CCc2c(Oc3ccc4c(c3)[C@H]3[C@H](NC(=O)Nc5cc(C(F)(F)F)ccc5F)[C@H]3O4)ccnc2N1 [Compound 1.33] | 9.5 |  | 19 | 75 | 137
7 | O=C1CCc2c(Oc3ccc4c(c3)[C@H]3[C@H](NC(=O)Nc5c(F)cc(F)cc5F)[C@H]3O4)ccnc2N1 [Compound 1.40] | 1.6 | 0.2 | 2 |  | 
8 | O=C1CCc2c(Oc3ccc4c(c3)[C@H]3[C@H](NC(=O)Nc5c(F)ccc(F)c5F)[C@H]3O4)ccnc2N1 [Compound 1.48] | 0.74 |  | 2.5 | 7.9 | 686
9 | O=C1CCc2c(Oc3ccc4c(c3)[C@H]3[C@H](NC(=O)NCc5cccc(F)c5)[C@H]3O4)ccnc2N1 [Compound 1.58] | 0.77 |  |  |  | 534
10 | O=C1CCc2c(Oc3ccc4c(c3)[C@H]3[C@H](NC(=O)NCc5ccc(F)cc5)[C@H]3O4)ccnc2N1 [Compound 1.59] | 0.84 |  |  |  | 891
11 | O=C1CCc2c(Oc3ccc4c(c3)[C@H]3[C@H](NC(=O)Nc5cccc(OC(F)(F)F)c5)[C@H]3O4)ccnc2N1 [Compound 1.60] | 8.6 |  |  |  | 193
12 | O=C1CCc2c(Oc3ccc4c(c3)[C@H]3[C@H](NC(=O)Nc5ccc(OC(F)(F)F)cc5)[C@H]3O4)ccnc2N1 [Compound 1.61] | 7.4 |  |  |  | 975
13 | O=C1CCc2c(Oc3ccc4c(c3)[C@H]3[C@H](NC(=O)Nc5ccccc5OC(F)(F)F)[C@H]3O4)ccnc2N1 [Compound 1.62] | 6.3 |  |  |  | 302
14 | O=C1CCc2c(Oc3ccc4c(c3)[C@H]3[C@H](NC(=O)NC5CCOCC5)[C@H]3O4)ccnc2N1 [Compound 1.67] | 4.2 |  |  |  | 4170
15 | CC(C)(N)c1cc(NC(=O)N[C@@H]2[C@H]3Oc4ccc(Oc5ccnc6c5CCC(=O)N6)cc4[C@@H]23)cc(C(F)(F)F)c1 [Compound 1.70, 1-(3-(2-aminopropan-2-yl)-5-(trifluoromethyl)phenyl)-3-((1S,1aS,6bS)-5-((7-oxo-5,6,7,8-tetrahydro-1,8-naphthyridin-4-yl)oxy)-1a,6b-dihydro-1H-cyclopropa[b]benzofuran-1-yl)urea] | 7.4 | 0.81 | 15 |  | 
16 | O=C1CCc2c(Oc3ccc4c(c3)[C@@H]3[C@@H](NC(=O)Nc5cccc(C(F)(F)F)c5)[C@@H]3O4)ccnc2N1 [Compound 1.71, 1-((1R,1aR,6bR)-5-((7-oxo-5,6,7,8-tetrahydro-1,8-naphthyridin-4-yl)oxy)-1a,6b-dihydro-1H-cyclopropa[b]benzofuran-1-yl)-3-(3-(trifluoromethyl)phenyl)urea] | 3 | 0.34 |  |  | 

Row | Structure (SMILES) | IC50 (B-Raf (V600E)) [nM] | IC50 (C-Raf (Y340D/Y341D)) [nM] | IC50 (wild type B-Raf; [1]) [nM] | IC50 (wild type B-Raf; [2]) [nM] | EC50 (A375) [nM]
17 | O=C1CCc2c(Oc3ccc4c(c3)[C@H]3C(NC(=O)NCc5ccc(F)cc5C(F)(F)F)[C@H]3O4)ccnc2N1 (stereo partly drawn) [Compound 1.76] | 3.4 |  |  |  | 1310
18 | CC(C)(C)NC(=O)N[C@@H]1[C@H]2Oc3ccc(Oc4ccnc5c4CCC(=O)N5)cc3[C@@H]12 [Compound 1.77] | 4.5 |  |  |  | 4540
19 | CCCCCCNC(=O)N[C@@H]1[C@H]2Oc3ccc(Oc4ccnc5c4CCC(=O)N5)cc3[C@@H]12 [Compound 1.78] | 0.72 |  |  |  | 1900
20 | O=C1CCc2c(Oc3ccc4c(c3)[C@H]3[C@H](NC(=O)N[C@H]5CCCc6ccccc65)[C@H]3O4)ccnc2N1 [Compound 1.79] | 3.2 | 0.39 |  |  | 222
21 | O=C1CCc2c(Oc3ccc4c(c3)[C@H]3[C@H](NC(=O)N[C@@H]5CCCc6ccccc65)[C@H]3O4)ccnc2N1 [Compound 1.80] | 4 | 0.5 |  |  | 132
22 | O=C1CCc2c(Oc3ccc4c(c3)[C@H]3[C@H](NC(=O)N[C@H]5CCc6ccccc65)[C@H]3O4)ccnc2N1 [Compound 1.81] | 2.7 |  |  |  | 159
23 | O=C1CCc2c(Oc3ccc4c(c3)[C@H]3[C@H](NC(=O)N[C@@H]5CCc6ccccc65)[C@H]3O4)ccnc2N1 [Compound 1.82] | 2.4 |  |  |  | 867
24 | CC(C)(C)CNC(=O)N[C@@H]1[C@H]2Oc3ccc(Oc4ccnc5c4CCC(=O)N5)cc3[C@@H]12 [Compound 1.83] | 3 |  |  |  | 291
25 | CCCCCCCCNC(=O)N[C@@H]1[C@H]2Oc3ccc(Oc4ccnc5c4CCC(=O)N5)cc3[C@@H]12 [Compound 1.84] | 12 |  |  |  | 4330
26 | O=C(Nc1cc(F)c(F)cc1F)N[C@@H]1[C@H]2Oc3ccc(Oc4ccnc5c4COC(=O)N5)cc3[C@@H]12 [Compound 2.3, 1-((1S,1aS,6bS)-5-((2-oxo-2,4-dihydro-1H-pyrido[2,3-d][1,3]oxazin-5-yl)oxy)-1a,6b-dihydro-1H-cyclopropa[b]benzofuran-1-yl)-3-(2,4,5-trifluorophenyl)urea] | 2.6 |  |  |  | 190
27 | O=C1NCc2c(Oc3ccc4c(c3)[C@H]3[C@H](NC(=O)Nc5ccc(F)c(C(F)(F)F)c5)[C@H]3O4)ccnc2N1 [Compound 2.4, 1-(4-fluoro-3-(trifluoromethyl)phenyl)-3-((1S,1aS,6bS)-5-((2-oxo-1,2,3,4-tetrahydropyrido[2,3-d]pyrimidin-5-yl)oxy)-1a,6b-dihydro-1H-cyclopropa[b]benzofuran-1-yl)urea] | 11 |  |  |  | 374
28 | O=C1NCc2c(Oc3ccc4c(c3)[C@H]3[C@H](NC(=O)Nc5cc(F)c(F)cc5F)[C@H]3O4)ccnc2N1 [Compound 2.5] | 2.3 |  |  |  | 769
29 | CNC(=O)c1cc(Oc2ccc3c(c2)[C@H]2[C@H](NC(=O)Nc4cccc(C(F)(F)F)c4)[C@H]2O3)ccn1 [Compound 2.6, N-methyl-4-(((1S,1aS,6bS)-1-(3-(3-(trifluoromethyl)phenyl)ureido)-1a,6b-dihydro-1H-cyclopropa[b]benzofuran-5-yl)oxy)picolinamide] | 26 |  |  |  | 624
30 | CNC(=O)c1cc(Oc2ccc3c(c2)[C@H]2[C@H](NC(=O)Nc4ccc(F)c(C(F)(F)F)c4)[C@H]2O3)ccn1 [Compound 2.7] | 33 |  |  |  | 464
31 | CNC(=O)c1cc(Oc2ccc3c(c2)[C@H]2[C@H](NC(=O)Nc4cc(F)c(F)cc4F)[C@H]2O3)ccn1 [Compound 2.8] | 13 | 3 | 17 |  | 
32 | Nc1cc(Oc2ccc3c(c2)[C@H]2[C@H](NC(=O)Nc4cc(F)c(F)cc4F)[C@H]2O3)ccn1 [Compound 2.15] | 18 |  |  |  | 10000
